# Assay results taken from paper PMC6986443, “T‐495, a novel low cooperative M1 receptor positive allosteric modulator, improves memory deficits associated with cholinergic dysfunction and is characterized by low gastrointestinal side effect risk” (Pharmacology Research & Perspectives, 2020).
# Where two headings read alike, the source gives them in different places.
# Legend:
# [1] = system: ileum segment of ICR mice; assay: Spontaneous ileum contraction; parameters: species or system mouse; details: 0.01, 0.1, and 1 μmol/L applied cumulatively
# Experimental: ICR mice were fasted overnight and sacrificed by decapitation, and the ileum was removed and the luminal contents were gently flushed out with ice‐cold modified Krebs buffer (NaCl, 120.7 mmol/L; KCl, 5.9 mmol/L; NaHCO3, 15.5 mmol/L; MgCl2, 1.2 mmol/L; NaH2PO4, 1.2 mmol/L; CaCl2, 2.5 mmol/L; glucose, 11.5 mmol/L). The ileum segment (approximately 5 mm in length) was suspended in a 10‐mL organ bath filled with oxygenated (95% O2 and 5% CO2) modified Krebs buffer at 37°C. One end of the ileum segment was tied to a hook and the other end was secured with a silk thread to an isometric force transducer (MLT050/A, ADInstruments) connected to a data acquisition system (PowerLab 8/30 ML870 and Octal Bridge Amp ML228, ADInstruments). The ileum segment was subjected to an initial tension of 0.3 to 0.4 g and was allowed to equilibrate for at least 30 minutes. After the equilibration period, spontaneous contractions were measured for 3 minutes (pretreatment) and then increasing concentrations of a test compound (0.01, 0.1, and 1 μmol/L) were cumulatively applied at 3‐minute intervals. LabChart software (ADInstruments) was used to analyze the spontaneous contractions. The mean amplitude of spontaneous contractions at each concentration was normalized to that observed at pretreatment.
# SD rats = system: SD rats
# Experimental: Seven‐ or 8‐week‐old SD rats were individually placed into observation cages. After an acclimation period of at least 1 hour, a test compound was administered to the rats. […] Cholinergic side effects, including diarrhea, lacrimation, salivation, miosis, and fasciculation, were assessed blindly, as described previously,27 and convulsion was scored using a modified Racine scale,37 as follows: stage 0, normal; stage 1, immobility; stage 2, forelimb and/or tail extension and rigid posture; stage 3, repetitive movements, head nodding, and gnawing; stage 4, rearing and falling; stage 5, continuous rearing and falling; stage 6, severe tonic‐clonic seizure with loss of postural control; and stage 7, death in the first 2 hours.
# human M1R = molecular target: T1, human M1R (Homo sapiens, UniProt P11229); assay: Ca2+ mobilization assay, PAM activity (with EC20 ACh), CHO‐K1 cells; assay type: cell-based; parameters: expressed in transfected cells; host or cells: CHO-K1
# T1 sequence (P11229 1-460): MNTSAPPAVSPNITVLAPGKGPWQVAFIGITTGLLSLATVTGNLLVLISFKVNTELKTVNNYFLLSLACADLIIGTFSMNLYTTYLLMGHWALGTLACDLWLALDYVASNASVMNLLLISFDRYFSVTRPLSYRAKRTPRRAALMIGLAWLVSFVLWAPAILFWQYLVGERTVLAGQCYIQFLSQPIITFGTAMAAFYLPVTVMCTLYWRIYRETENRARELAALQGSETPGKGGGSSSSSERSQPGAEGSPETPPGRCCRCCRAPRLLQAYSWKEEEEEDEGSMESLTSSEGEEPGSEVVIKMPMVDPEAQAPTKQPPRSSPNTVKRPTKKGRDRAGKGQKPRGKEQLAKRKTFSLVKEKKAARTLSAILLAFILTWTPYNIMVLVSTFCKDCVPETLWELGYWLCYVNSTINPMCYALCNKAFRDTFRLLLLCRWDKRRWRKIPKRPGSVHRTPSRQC
# Experimental: Chinese hamster ovary (CHO)‐K1 cells expressing M1R–M5R were plated on a 96‐well black, clear bottom plate at 30 000 cells/well and incubated at 37°C in an atmosphere of 5% CO2 for 1 day. On the day of the assay, cells were incubated with calcium dye buffer (Hanks’ Balanced Salt Solution (HBSS) containing 20 mmol/L HEPES, 0.1% fatty acid‐free bovine serum albumin (BSA), 0.08% pluronic F127 (Dojindo Laboratories), 2.5 μg/mL Fluo‐4 (Dojindo Laboratories), and 1.25 mmol/L probenecid (Dojindo Laboratories)) for 30 minutes at 37°C in an atmosphere of 5% CO2 and then incubated for 30 minutes at room temperature. To measure Ca^2+ mobilization using CellLux (PerkinElmer), cells were stimulated with T‐495 or MK‐7622 (0.01‐1000 nmol/L for PAM activity; 0.3‐10 000 nmol/L for agonist activity) in assay buffer (HBSS containing 20 mmol/L HEPES and 0.1% fatty acid‐free BSA) with or without an EC20 concentration of ACh. The inflection point (IP) and EC50 values were calculated using the following equation by GraphPad Prism 5 software (GraphPad Software Inc): Y=Bottom+(Top-Bottom)/1+10^(Log IPorEC50-X×HillSlope))
# where X and Y are the log concentration of a compound and the percentage of Ca^2+ response, respectively, and Top and Bottom are the upper and lower plateaus, respectively.
# [2] = rats, 1 mg/kg p.o., observed 15 min to 8 h, rats with effect/total
# [3] = rats, 3 mg/kg p.o., observed 15 min to 8 h, rats with effect/total
# [4] = rats, 10 mg/kg p.o., observed 15 min to 8 h, rats with effect/total
# [5] = rats, 30 mg/kg p.o., observed 15 min to 8 h, rats with effect/total
# [6] = rats, 100 mg/kg p.o., observed 15 min to 8 h, rats with effect/total
# [7] = rats, T-495 0.3 mg/kg p.o. alone, combination study, rats with effect/total
# [8] = rats, donepezil 0.1 mg/kg + T-495 0.3 mg/kg p.o., rats with effect/total
structure (smiles),measurement,setting,value
"Cc1c(Cc2ccc(Cl)nc2)cc2c(c1Cl)OCN([C@H]1CCC[C@@H]1O)C2=O [T‐495, 8‐chloro‐6‐((6‐chloropyridin‐3‐yl)methyl)‐3‐((1S,2S)‐2‐hydroxycyclopentyl)‐7‐methyl‐2,3‐dihydro‐4H‐1,3‐benzoxazin‐4‐one]",concentration at which spontaneous ileum contraction was increased,[1],1 µmol/L
same,"dose difference between memory improvement and induction of cholinergic side effects, including diarrhea",SD rats; rats,100 fold
same,Convulsion,SD rats; [2],0/6
same,Fasciculation,SD rats; [2],0/6
same,Lacrimation,SD rats; [2],0/6
same,Loose or mucous stool or diarrhea,SD rats; [2],0/6
same,Miosis,SD rats; [2],0/6
same,Salivation,SD rats; [2],0/6
same,Convulsion,SD rats; [3],0/6
same,Fasciculation,SD rats; [3],0/6
same,Lacrimation,SD rats; [3],0/6
same,Loose or mucous stool or diarrhea,SD rats; [3],0/6
same,Miosis,SD rats; [3],0/6
same,Salivation,SD rats; [3],0/6
same,Convulsion,SD rats; [4],0/6
same,Fasciculation,SD rats; [4],0/6
same,Lacrimation,SD rats; [4],0/6
same,Loose or mucous stool or diarrhea,SD rats; [4],0/6
same,Miosis,SD rats; [4],0/6
same,Salivation,SD rats; [4],0/6
same,Convulsion,SD rats; [5],0/6
same,Fasciculation,SD rats; [5],0/6
same,Lacrimation,SD rats; [5],0/6
same,Loose or mucous stool or diarrhea,SD rats; [5],0/6
same,Miosis,SD rats; [5],0/6
same,Salivation,SD rats; [5],0/6
same,Convulsion,SD rats; [6],1/6
same,Fasciculation,SD rats; [6],0/6
same,Lacrimation,SD rats; [6],0/6
same,Loose or mucous stool or diarrhea,SD rats; [6],5/6
same,Miosis,SD rats; [6],0/6
same,Salivation,SD rats; [6],1/6
same,diarrhea score,"SD rats; rats, 100 mg/kg p.o., vs vehicle",significantly increased
same,Convulsion,SD rats; [7],0/6
same,Fasciculation,SD rats; [7],0/6
same,Lacrimation,SD rats; [7],0/6
same,"Loose, mucous stool, or diarrhea",SD rats; [7],0/6
same,Myosis,SD rats; [7],0/6
same,Salivation,SD rats; [7],0/6
same,"cholinergic side effects, combination with donepezil","SD rats; rats, T‐495 0.3 mg/kg + donepezil 0.1 mg/kg",no cholinergic side effects were observed
same,Convulsion,SD rats; [8],0/6
same,Fasciculation,SD rats; [8],0/6
same,Lacrimation,SD rats; [8],0/6
same,"Loose, mucous stool, or diarrhea",SD rats; [8],0/6
same,Myosis,SD rats; [8],0/6
same,Salivation,SD rats; [8],0/6
same,cholinergic side effects,"SD rats; rats, doses up to 30 mg/kg p.o.",did not elicit any cholinergic side effects
same,EC50,human M1R,2.29 nM
"Cc1ccc(Cc2cc3c(=O)n([C@H]4CCCC[C@@H]4O)cnc3c3ccccc23)cn1 [MK‐7622, 3‐((1S,2S)‐2‐hydroxycyclohexyl)‐6‐((6‐methylpyridin‐3‐yl)methyl)benzo[h]quinazolin‐4(3H)‐one, reference compound]",concentration at which spontaneous ileum contraction was increased,[1],≤ 0.01 µmol/L
same,Convulsion,"SD rats; SD, rat, in vivo, po, 3 mg/kg",0/6
same,Fasciculation,"SD rats; SD, rat, in vivo, po, 3 mg/kg",0/6
same,Lacrimation,"SD rats; SD, rat, in vivo, po, 3 mg/kg",0/6
same,Loose or mucous stool or diarrhea,"SD rats; SD, rat, in vivo, po, 3 mg/kg",2/6
same,Miosis,"SD rats; SD, rat, in vivo, po, 3 mg/kg",0/6
same,Salivation,"SD rats; SD, rat, in vivo, po, 3 mg/kg",0/6
same,Convulsion,"SD rats; SD, rat, in vivo, po, 10 mg/kg",0/6
same,Fasciculation,"SD rats; SD, rat, in vivo, po, 10 mg/kg",0/6
same,Lacrimation,"SD rats; SD, rat, in vivo, po, 10 mg/kg",0/6
same,Loose or mucous stool or diarrhea,"SD rats; SD, rat, in vivo, po, 10 mg/kg",3/6
same,Miosis,"SD rats; SD, rat, in vivo, po, 10 mg/kg",0/6
same,Salivation,"SD rats; SD, rat, in vivo, po, 10 mg/kg",0/6
same,Convulsion,"SD rats; SD, rat, in vivo, po, 30 mg/kg",0/6
same,Fasciculation,"SD rats; SD, rat, in vivo, po, 30 mg/kg",0/6
same,Lacrimation,"SD rats; SD, rat, in vivo, po, 30 mg/kg",0/6
same,Loose or mucous stool or diarrhea,"SD rats; SD, rat, in vivo, po, 30 mg/kg",6/6
same,Miosis,"SD rats; SD, rat, in vivo, po, 30 mg/kg",0/6
same,Salivation,"SD rats; SD, rat, in vivo, po, 30 mg/kg",0/6
same,"dose difference between memory improvement and induction of cholinergic side effects, including diarrhea","SD rats; rat, in vivo",onefold
same,diarrhea score,"SD rats; rat, in vivo, po, 3 mg/kg",tended to increase
same,EC50,human M1R,1.32 nM
